According to publication PMC8161536, “Structure-tuned membrane active Ir-complexed oligoarginine overcomes cancer cell drug resistance and triggers immune responses in mice” (Chemical Science, 2020):
Blank lines part the entries; values can stand above or below the compound they belong to.

What was measured:
Type in all cases: cell-based
[1] = system: HL60; assay: CCK-8 cytotoxicity, HL60; settings: Homo sapiens, HL-60; read-out: Antiproliferative activity (IC50) HL60
[2] = system: HL60/Ara-C; assay: CCK-8 cytotoxicity, cytarabine-resistant HL60/Ara-C; settings: Homo sapiens, HL-60; read-out: Antiproliferative activity (IC50) HL60/Ara-C
[3] = system: HeLa cells; settings: 24 h
Method: (Waters Corp., USA) The gradient mobile phase consisted of acetonitrile (A) and H2O (B) both containing […] A typical 15 min sample run consisted of 2 min of 20% solvent A and 80% solvent B followed by an increment of solvent A up to 23% for the remaining 2 min. Then the proportion of solvent A was increased to 45% in the following 8 min and decreased to 20% in the last 3 min. The analytes were monitored by a photo diode array (PDA) detector set at 220 nm and 254 nm and the flow rate was set to 0.3 mL min-1. The separated metallopeptides were collected to lyophilized and quantified by ICP-MASS, then for MTT assay. Circular dichroism assay of Ir-peptides […] The collected Ir- peptides were lyophilized and quantified by ICP-MASS. The Ir-peptides, isomers, mixture of two isomers were diluted to same concentration for circular dichroism test. (Chirascan-plus, Applied photophysics) LogP assay Water and octanol (1:1, v/v) were saturated for 24 h at room temperature and separated as aqueous phase and oil phase. Ir- […] Samples were stirred for 24 h at room […] the standard curves by fluorescence spectrophotometer, Ex Slit:5.0 nm, Em Slit:5.0 nm, 650 V. Then the aqueous phase's fluorescence intensities in samples containing both oil and aqueous phases were scanned, the concentration in aqueous phase of each Ir-peptide was calculated by standard curve, the Ir-peptide's initial concentration in aqueous phase minus 24 hour's concentration in aqueous phase to obtain the 24 hour's concentration in oil phase, logP=log(c oil/caqueous). Cell culture […] cells were incubated in RPMI 1640 medium with 10% fetal bovine serum, 37 °C, 5%CO2. […] Pharmacology Department, College of Pharmaceutical Sciences, Soochow University. […] obtained from Institute of Hematology and Blood Diseases Hospital, Chinese Academy of Medical Sciences & Peking Union Medical College. Induction of cisplatin resistant A549/DDP cells […] entering the logarithmic growth period. Then the medium was replaced by DMEM medium containing 10% fetal bovine serum and 0.125 μM cisplatin. The cells were incubated with cisplatin for 24 h and the medium was removed and no cisplatin DMEM […] The induction followed this […] The concentration of cisplatin was twice as much as before in each induction. Then the cells were incubated with DMEM containing 10% fetal bovine serum and 4 μM cisplatin for two months and medium containing cisplatin was replaced by no-cisplatin medium two weeks before experiment. Cytotoxicity HeLa cells were cultured in 96-well microplates, 8*10^3 cells per well overnight. […] CCK-8 of 20 μL was added in each well and incubated for 4 h, then the absorbance at 450 nm of each well was obtained by microplate spectrophotometer to calculate the cell viability. […] The absorbance […]

[4] = system: HL60/ADR; assay: CCK-8 cytotoxicity, doxorubicin-resistant HL60/ADR; settings: Homo sapiens, read-out: Antiproliferative activity (IC50) HL60/ADR
[5] = system: A549/DDP; assay: MTT cytotoxicity, cisplatin-resistant A549/DDP; settings: Ir-cR8 24 h, cisplatin 48 h, unit inferred, test concentrations in μM, read-out: Antiproliferative activity (IC50) A549/DDP
Method: (Waters Corp., USA) The gradient mobile phase consisted of acetonitrile (A) and H2O (B) both containing […] A typical 15 min sample run consisted of 2 min of 20% solvent A and 80% solvent B followed by an increment of solvent A up to 23% for the remaining 2 min. Then the proportion of solvent A was increased to 45% in the following 8 min and decreased to 20% in the last 3 min. The analytes were monitored by a photo diode array (PDA) detector set at 220 nm and 254 nm and the flow rate was set to 0.3 mL min-1. The separated metallopeptides were collected to lyophilized and quantified by ICP-MASS, then for MTT assay. Circular dichroism assay of Ir-peptides […] The collected Ir- peptides were lyophilized and quantified by ICP-MASS. The Ir-peptides, isomers, mixture of two isomers were diluted to same concentration for circular dichroism test. (Chirascan-plus, Applied photophysics) LogP assay Water and octanol (1:1, v/v) were saturated for 24 h at room temperature and separated as aqueous phase and oil phase. Ir- […] […] CCK-8 of 20 μL was added in each well and incubated for 4 h, then the absorbance at 450 nm of each well was obtained by microplate spectrophotometer to calculate the cell viability. […] The absorbance […]

[6] = system: A549/Taxol; assay: MTT cytotoxicity, paclitaxel-resistant A549/Taxol; settings: read-out: Antiproliferative activity (IC50) A549/Taxol
Method: mm × 2.1 mm column. (Waters Corp., USA) The gradient mobile phase consisted of acetonitrile (A) and H2O (B) both containing
0.1% trifluoroacetic acid. A typical 15 min sample run consisted of 2 min of 20% solvent A and 80% solvent B followed by an
increment of solvent A up to 23% for the remaining 2 min. Then the proportion of solvent A was increased to 45% in the
following 8 min and decreased to 20% in the last 3 min. The analytes were monitored by a photo diode array (PDA) detector
set at 220 nm and 254 nm and the flow rate was set to 0.3 mL min-1. The separated metallopeptides were collected to
lyophilized and quantified by ICP-MASS, then for MTT assay.
Circular dichroism assay of Ir-peptides
peptides were lyophilized and quantified by ICP-MASS. The Ir-peptides, isomers, mixture of two isomers were diluted to same
concentration for circular dichroism test. (Chirascan-plus, Applied photophysics)
Water and octanol (1:1, v/v) were saturated for 24 h at room temperature and separated as aqueous phase and oil phase. Ir- […]
the standard curves by fluorescence spectrophotometer, Ex Slit:5.0 nm, Em Slit:5.0 nm, 650 V. Then the aqueous phase’s
fluorescence intensities in samples containing both oil and aqueous phases were scanned, the concentration in aqueous phase
of each Ir-peptide was calculated by standard curve, the Ir-peptide’s initial concentration in aqueous phase minus 24 hour’s […]

IC50 [3]: > 100 µM
Compound: Ac-HHRRRR-NH2 [aR4]

IC50 [3]: > 100 µM
Compound: Ac-HHRRR-NH2 [aR3]

IC50 [3]: > 100 µM
Compound: Ac-HRRRRH-NH2 [cR4]

IC50 [3]: > 100 µM
Compound: Ac-HRRRH-NH2 [cR3]

The remaining lines, values behind:

Compound: Nc1ccn([C@@H]2O[C@H](CO)[C@@H](O)[C@@H]2O)c(=O)n1 [Cytarabine, cytarabine]
IC50 [1]: 70 ± 3 nM
IC50 [2]: > 128 µM

Compound: COc1cccc2c1C(=O)c1c(O)c3c(c(O)c1C2=O)C[C@@](O)(C(=O)CO)C[C@@H]3O[C@H]1C[C@H](N)[C@H](O)[C@H](C)O1 [Doxorubicin, doxorubicin]
IC50 [1]: 130 ± 60 nM
IC50 [4]: 8.3 ± 0.2 µM

Compound: N.N.[Cl][Pt][Cl] [Cisplatin, cisplatin]
IC50 [5]: > 128 µM

Compound: CC(=O)O[C@H]1C(=O)[C@@]2(C)[C@H]([C@H](OC(=O)c3ccccc3)[C@]3(O)C[C@H](OC(=O)[C@H](O)[C@@H](NC(=O)c4ccccc4)c4ccccc4)C(C)=C1C3(C)C)[C@]1(OC(C)=O)CO[C@@H]1C[C@@H]2O [Paclitaxel, paclitaxel]
IC50 [6]: 25.8 ± 0.5 µM
